Measurements taken from PubChem BioAssay AID2060884 (Molecular Pharmacology Branch, DTP, NCI, 2025).

Tested on: NCI-H929 complex spheroids, viability % test/control
Assay: Anticancer human tumor NCI-H929 cell line growth inhibition [RAS];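 further: compound exposure lasted seven days before viability was read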;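 on viability, T/C: 100% = DMSO vehicle control viability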
Conditions: for IC50: curve of first compound; for viability, T/C: stronger effect = lower value
How it was run: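 Tumour cells grown as complex spheroids with HUVEC endothelial cells and mesenchymal stem cells, treated with RAS pathway inhibitor combinations. Each agent spans half-log steps from near clinical Cmax, or 10 microM where Cmax is unknown.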

CC1(C)CCC(Nc2ncc(C(F)(F)F)c(-c3c[nH]c4c(P(C)(C)=O)c(C#N)ccc34)n2)CN1 (centres undefined) + CCn1c(-c2cccnc2C(C)OC)c2c3cc(ccc31)N1CCOC(CC(NC(=O)C(C(C)C)N(C)C(=O)C3(F)CCN(C(=O)C#CC(C)(C)N(C)C)CC3)C(=O)N3CCCC(N3)C(=O)OCC(C)(C)C2)C1
IC50 (second compound 0.000949 µM): 1.96 nM | IC50 (second compound 0.003 µM): 1.84 nM | IC50 (second compound 0.00949 µM): 1.83 nM | IC50 (second compound 0.03 µM): 1.79 nM | IC50 (second compound 0.0949 µM): 1.67 nM | IC50 (second compound 0.3 µM): 1.46 nM | viability, T/C (second compound 0.000949 µM, first compound 0.000949 µM): 101% | viability, T/C (second compound 0.000949 µM, first compound 0.003 µM): 20.1% | viability, T/C (second compound 0.000949 µM, first compound 0.00949 µM): 4.36% | viability, T/C (second compound 0.000949 µM, first compound 0.03 µM): 3.1% | viability, T/C (second compound 0.000949 µM, first compound 0.0949 µM): 2.69% | viability, T/C (second compound 0.000949 µM, first compound 0.3 µM): 2.22% | viability, T/C (second compound 0.003 µM, first compound 0.000949 µM): 94.2% | viability, T/C (second compound 0.003 µM, first compound 0.003 µM): 17.3% | viability, T/C (second compound 0.003 µM, first compound 0.00949 µM): 4.24% | viability, T/C (second compound 0.003 µM, first compound 0.03 µM): 3.6% | viability, T/C (second compound 0.003 µM, first compound 0.0949 µM): 2.6% | viability, T/C (second compound 0.003 µM, first compound 0.3 µM): 2.53% | viability, T/C (second compound 0.00949 µM, first compound 0.000949 µM): 93.6% | viability, T/C (second compound 0.00949 µM, first compound 0.003 µM): 17% | viability, T/C (second compound 0.00949 µM, first compound 0.00949 µM): 4.24% | viability, T/C (second compound 0.00949 µM, first compound 0.03 µM): 2.85% | viability, T/C (second compound 0.00949 µM, first compound 0.0949 µM): 2.94% | viability, T/C (second compound 0.00949 µM, first compound 0.3 µM): 2.08% | viability, T/C (second compound 0.03 µM, first compound 0.000949 µM): 96.1% | viability, T/C (second compound 0.03 µM, first compound 0.003 µM): 12.4% | viability, T/C (second compound 0.03 µM, first compound 0.00949 µM): 3.38% | viability, T/C (second compound 0.03 µM, first compound 0.03 µM): 2.65% | viability, T/C (second compound 0.03 µM, first compound 0.0949 µM): 2.58% | viability, T/C (second compound 0.03 µM, first compound 0.3 µM): 1.92% | viability, T/C (second compound 0.0949 µM, first compound 0.000949 µM): 88.9% | viability, T/C (second compound 0.0949 µM, first compound 0.003 µM): 9.6% | viability, T/C (second compound 0.0949 µM, first compound 0.00949 µM): 2.64% | viability, T/C (second compound 0.0949 µM, first compound 0.03 µM): 2.41% | viability, T/C (second compound 0.0949 µM, first compound 0.0949 µM): 2.02% | viability, T/C (second compound 0.0949 µM, first compound 0.3 µM): 1.77% | viability, T/C (second compound 0.3 µM, first compound 0.000949 µM): 76.2% | viability, T/C (second compound 0.3 µM, first compound 0.003 µM): 5.86% | viability, T/C (second compound 0.3 µM, first compound 0.00949 µM): 2.85% | viability, T/C (second compound 0.3 µM, first compound 0.03 µM): 2.43% | viability, T/C (second compound 0.3 µM, first compound 0.0949 µM): 1.88% | viability, T/C (second compound 0.3 µM, first compound 0.3 µM): 1.61%

Nc1ccn(C2OC(CO)C(O)C2(F)F)c(=O)n1 (centres undefined) + C=CC(=O)N1CCN(c2nc(OCC3CCCN3C)nc3c(F)c(-c4nc(N)cc(C)c4C(F)(F)F)c(Cl)cc23)C(C)C1
IC50 (second compound 0.00316 µM): 18.4 nM | IC50 (second compound 0.01 µM): 18.4 nM | IC50 (second compound 0.0316 µM): 18.4 nM | IC50 (second compound 0.1 µM): 17.7 nM | IC50 (second compound 0.316 µM): 18.6 nM | IC50 (second compound 1 µM): 18.9 nM | viability, T/C (second compound 0.00316 µM, first compound 0.00316 µM): 102% | viability, T/C (second compound 0.00316 µM, first compound 0.01 µM): 106% | viability, T/C (second compound 0.00316 µM, first compound 0.0316 µM): 1.52% | viability, T/C (second compound 0.00316 µM, first compound 0.1 µM): 2.24% | viability, T/C (second compound 0.00316 µM, first compound 0.316 µM): 1.73% | viability, T/C (second compound 0.00316 µM, first compound 1 µM): 0.82% | viability, T/C (second compound 0.01 µM, first compound 0.00316 µM): 97.8% | viability, T/C (second compound 0.01 µM, first compound 0.01 µM): 111% | viability, T/C (second compound 0.01 µM, first compound 0.0316 µM): 1.3% | viability, T/C (second compound 0.01 µM, first compound 0.1 µM): 2.1% | viability, T/C (second compound 0.01 µM, first compound 0.316 µM): 1.62% | viability, T/C (second compound 0.01 µM, first compound 1 µM): 0.86% | viability, T/C (second compound 0.0316 µM, first compound 0.00316 µM): 94.8% | viability, T/C (second compound 0.0316 µM, first compound 0.01 µM): 114% | viability, T/C (second compound 0.0316 µM, first compound 0.0316 µM): 1.48% | viability, T/C (second compound 0.0316 µM, first compound 0.1 µM): 1.95% | viability, T/C (second compound 0.0316 µM, first compound 0.316 µM): 1.12% | viability, T/C (second compound 0.0316 µM, first compound 1 µM): 0.76% | viability, T/C (second compound 0.1 µM, first compound 0.00316 µM): 99.3% | viability, T/C (second compound 0.1 µM, first compound 0.01 µM): 97.3% | viability, T/C (second compound 0.1 µM, first compound 0.0316 µM): 1.86% | viability, T/C (second compound 0.1 µM, first compound 0.1 µM): 2.03% | viability, T/C (second compound 0.1 µM, first compound 0.316 µM): 1.73% | viability, T/C (second compound 0.1 µM, first compound 1 µM): 1% | viability, T/C (second compound 0.316 µM, first compound 0.00316 µM): 101% | viability, T/C (second compound 0.316 µM, first compound 0.01 µM): 114% | viability, T/C (second compound 0.316 µM, first compound 0.0316 µM): 1.08% | viability, T/C (second compound 0.316 µM, first compound 0.1 µM): 1.62% | viability, T/C (second compound 0.316 µM, first compound 0.316 µM): 1.46% | viability, T/C (second compound 0.316 µM, first compound 1 µM): 0.81% | viability, T/C (second compound 1 µM, first compound 0.00316 µM): 103% | viability, T/C (second compound 1 µM, first compound 0.01 µM): 118% | viability, T/C (second compound 1 µM, first compound 0.0316 µM): 1.88% | viability, T/C (second compound 1 µM, first compound 0.1 µM): 2.07% | viability, T/C (second compound 1 µM, first compound 0.316 µM): 0.99% | viability, T/C (second compound 1 µM, first compound 1 µM): 0.9%
